Experimental data published in patent publication US9340590B2 (priority 2011, dated 2016).
Read-outs that look alike come from different tables or passages of the source. Positions of bridges follow the written chain, without caps; N, C: chain ends. Residues, ends and D or L forms follow the SMILES beside them.

Target: hNav1.3 (Homo sapiens, UniProt Q9NY46)
Test: cell-based
Details: for IC50: IonWorks Quattro, read-out: IWQ Use Nav1.3

Sequence of hNav1.3 (Q9NY46 whole entry, looked up): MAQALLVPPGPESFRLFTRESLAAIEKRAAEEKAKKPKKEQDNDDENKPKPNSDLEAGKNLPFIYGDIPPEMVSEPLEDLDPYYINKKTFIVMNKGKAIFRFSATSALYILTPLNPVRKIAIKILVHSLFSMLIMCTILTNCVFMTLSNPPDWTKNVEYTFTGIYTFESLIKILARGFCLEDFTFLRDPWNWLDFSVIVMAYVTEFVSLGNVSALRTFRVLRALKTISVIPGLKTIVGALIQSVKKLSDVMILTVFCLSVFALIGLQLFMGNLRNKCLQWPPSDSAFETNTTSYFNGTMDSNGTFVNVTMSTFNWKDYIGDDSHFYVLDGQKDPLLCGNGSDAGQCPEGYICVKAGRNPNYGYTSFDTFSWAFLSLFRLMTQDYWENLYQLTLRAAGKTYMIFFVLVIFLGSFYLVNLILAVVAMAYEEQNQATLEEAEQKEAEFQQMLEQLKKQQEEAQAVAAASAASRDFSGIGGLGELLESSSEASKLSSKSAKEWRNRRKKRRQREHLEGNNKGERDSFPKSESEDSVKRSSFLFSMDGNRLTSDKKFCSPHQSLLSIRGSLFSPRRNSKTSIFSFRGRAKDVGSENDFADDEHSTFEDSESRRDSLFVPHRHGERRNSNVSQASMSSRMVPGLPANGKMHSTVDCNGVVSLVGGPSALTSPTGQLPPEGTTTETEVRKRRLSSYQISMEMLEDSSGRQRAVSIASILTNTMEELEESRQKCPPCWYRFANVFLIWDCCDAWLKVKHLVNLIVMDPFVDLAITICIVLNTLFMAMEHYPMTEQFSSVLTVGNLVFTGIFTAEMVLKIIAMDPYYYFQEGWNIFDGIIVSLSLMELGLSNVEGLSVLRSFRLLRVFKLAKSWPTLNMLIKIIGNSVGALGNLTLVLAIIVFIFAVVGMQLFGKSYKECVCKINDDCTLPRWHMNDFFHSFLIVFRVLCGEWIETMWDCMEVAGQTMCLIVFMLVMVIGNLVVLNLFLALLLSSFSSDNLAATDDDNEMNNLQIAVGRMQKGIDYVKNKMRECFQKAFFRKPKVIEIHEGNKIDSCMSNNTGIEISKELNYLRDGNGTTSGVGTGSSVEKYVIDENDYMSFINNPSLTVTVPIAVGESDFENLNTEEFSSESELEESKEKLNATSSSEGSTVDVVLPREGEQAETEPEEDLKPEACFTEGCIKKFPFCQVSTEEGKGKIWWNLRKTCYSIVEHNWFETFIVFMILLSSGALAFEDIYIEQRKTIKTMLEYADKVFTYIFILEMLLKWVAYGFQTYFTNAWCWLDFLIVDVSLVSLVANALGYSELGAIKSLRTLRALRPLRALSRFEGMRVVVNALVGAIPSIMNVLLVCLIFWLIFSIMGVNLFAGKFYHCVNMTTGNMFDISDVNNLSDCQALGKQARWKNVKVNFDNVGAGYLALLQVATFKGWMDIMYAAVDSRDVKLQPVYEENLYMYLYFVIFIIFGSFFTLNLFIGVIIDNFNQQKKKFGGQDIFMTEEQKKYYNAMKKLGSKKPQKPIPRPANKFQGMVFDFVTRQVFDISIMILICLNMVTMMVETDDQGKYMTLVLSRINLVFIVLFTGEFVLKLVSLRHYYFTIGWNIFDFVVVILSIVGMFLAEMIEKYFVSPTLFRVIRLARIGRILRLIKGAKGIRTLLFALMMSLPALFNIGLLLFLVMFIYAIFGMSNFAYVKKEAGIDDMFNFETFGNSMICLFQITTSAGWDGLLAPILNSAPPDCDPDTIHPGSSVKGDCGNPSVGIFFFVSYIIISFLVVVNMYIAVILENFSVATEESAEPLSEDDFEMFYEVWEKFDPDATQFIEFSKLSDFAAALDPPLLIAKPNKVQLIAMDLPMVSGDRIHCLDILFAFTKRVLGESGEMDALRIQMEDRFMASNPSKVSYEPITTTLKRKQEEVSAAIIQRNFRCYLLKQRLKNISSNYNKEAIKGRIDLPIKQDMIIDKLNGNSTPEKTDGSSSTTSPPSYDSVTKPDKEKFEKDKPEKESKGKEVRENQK

With `CC[C@H](C)[C@@H]1NC(=O)[C@@H]2CSSC[C@@H]3NC(=O)[C@H](C(C)C)NC(=O)[C@H](CC(C)C)NC(=O)[C@H](CC(N)=O)NC(=O)[C@@H]4CCCN4C(=O)[C@H](CCCNC(=N)N)NC(=O)[C@H](CSSC[C@H](NC(=O)[C@@H](N)CC(=O)O)C(=O)N[C@@H](CC(C)C)C(=O)NCC(=O)N[C@@H](C)C(=O)N[C@@H](CC(C)C)C(=O)N[C@@H](CCCNC(=N)N)C(=O)N[C@@H](CCCCN)C(=O)N2)NC(=O)[C@H](CSSC[C@@H](C(=O)N[C@@H](CCCCN)C(=O)N[C@@H](Cc2ccc(O)cc2)C(=O)N[C@H](C(=O)N[C@@H](Cc2ccccc2)C(N)=O)C(C)C)NC(=O)[C@H](Cc2c[nH]c4ccccc24)NC(=O)[C@H](CCCNC(=N)N)NC(=O)[C@H](Cc2cnc[nH]2)NC(=O)[C@H]([C@@H](C)O)NC(=O)[C@H](CCCNC(=N)N)NC(=O)[C@H](CO)NC3=O)NC(=O)[C@H](CCCCN)NC(=O)[C@H](CC(=O)O)NC(=O)[C@H](CC(N)=O)NC(=O)[C@H](CC(=O)O)NC(=O)[C@@H]2CCCN2C1=O` [compound 810] (H-DCLGALRKCIPDNDKCCRPNLVCSRTHRWCKYVF-NH2; disulfide 2-17, 9-23, 16-30) the IC50 (use-dependent block, hNav1.3) was 200 nM.

`CC[C@H](C)[C@@H]1NC(=O)[C@@H]2CSSC[C@@H]3NC(=O)[C@H](C(C)C)NC(=O)[C@H](CC(C)C)NC(=O)[C@H](CC(N)=O)NC(=O)[C@@H]4CCCN4C(=O)[C@H](CCCNC(=N)N)NC(=O)[C@H](CSSC[C@H](NC(=O)[C@@H](N)CC(=O)O)C(=O)N[C@@H](CC(C)C)C(=O)NCC(=O)N[C@@H](Cc4ccc(OC)c(OC)c4)C(=O)N[C@@H](CCSC)C(=O)N[C@@H](CCCNC(=N)N)C(=O)N[C@@H](CCCCN)C(=O)N2)NC(=O)[C@H](CSSC[C@@H](C(=O)N[C@@H](CCCCN)C(=O)N[C@@H](Cc2ccc(O)cc2)C(=O)N[C@H](C(=O)N[C@@H](Cc2ccccc2)C(N)=O)C(C)C)NC(=O)[C@H](Cc2c[nH]c4ccccc24)NC(=O)[C@H](CCCCN)NC(=O)[C@H](Cc2c[nH]cn2)NC(=O)[C@H]([C@@H](C)O)NC(=O)[C@H](CCCNC(=N)N)NC(=O)[C@H](CO)NC3=O)NC(=O)[C@H](CCCCN)NC(=O)[C@H](CC(=O)O)NC(=O)[C@H](CC(N)=O)NC(=O)[C@H](CC(=O)O)NC(=O)[C@@H]2CCCN2C1=O` [compound 652] showed a Nav1.7/Nav1.3 (ratio of IWQ Use values, Nav1.7 over Nav1.3) of 0.8.

`CC[C@H](C)[C@@H]1NC(=O)[C@@H]2CSSC[C@@H]3NC(=O)[C@H](C(C)C)NC(=O)[C@H](CC(C)C)NC(=O)[C@H](CC(N)=O)NC(=O)[C@@H]4CCCN4C(=O)[C@H](CCCNC(=N)N)NC(=O)[C@H](CSSC[C@H](NC(=O)[C@@H](N)CC(=O)O)C(=O)N[C@@H](CC(C)C)C(=O)NCC(=O)N[C@@H](C)C(=O)N[C@@H](CC(C)C)C(=O)N[C@@H](CCCNC(=N)N)C(=O)N[C@@H](CCCCN)C(=O)N2)NC(=O)[C@H](CSSC[C@@H](C(=O)N[C@@H](CCCCN)C(=O)N[C@@H](Cc2ccc(O)cc2)C(=O)N[C@H](C(=O)N[C@@H](Cc2ccccc2)C(N)=O)C(C)C)NC(=O)[C@H](Cc2c[nH]c4ccccc24)NC(=O)[C@H](CCCCN)NC(=O)[C@H](Cc2cnc[nH]2)NC(=O)[C@H]([C@@H](C)O)NC(=O)[C@H](CCCNC(=N)N)NC(=O)[C@H](CO)NC3=O)NC(=O)[C@H](CCCCN)NC(=O)[C@H](CC(=O)O)NC(=O)[C@H](CC(N)=O)NC(=O)[C@H](CC(=O)O)NC(=O)[C@@H]2CCCN2C1=O` [compound 696] gave an IC50 (use-dependent protocol, hNav1.3) of 750 nM.

Work on `CC[C@H](C)[C@@H]1NC(=O)[C@@H]2CSSC[C@@H]3NC(=O)[C@H](C(C)C)NC(=O)[C@H](CC(C)C)NC(=O)[C@H](CC(N)=O)NC(=O)[C@@H]4CCCN4C(=O)[C@H](CCCNC(=N)N)NC(=O)[C@H](CSSC[C@H](NC(=O)[C@@H](N)CC(=O)O)C(=O)N[C@@H](CC(C)C)C(=O)NCC(=O)N[C@@H](Cc4ccccc4)C(=O)N[C@@H](Cc4ccccc4)C(=O)N[C@@H](CCCNC(=N)N)C(=O)N[C@@H](CCCCN)C(=O)N2)NC(=O)[C@H](CSSC[C@@H](C(=O)N[C@@H](CCCCN)C(=O)N[C@@H](Cc2ccc(O)cc2)C(=O)N[C@H](C(=O)N[C@@H](Cc2ccccc2)C(=O)N[C@@H](Cc2cn(CCOCCOCCOCCOCCOCCOCCOCCOCCOCCOCCN)nn2)C(N)=O)C(C)C)NC(=O)[C@H](Cc2c[nH]c4ccccc24)NC(=O)[C@H](CCCCN)NC(=O)[C@H](Cc2c[nH]cn2)NC(=O)[C@H](CC(C)C)NC(=O)[C@H](CCCNC(=N)N)NC(=O)[C@H](CO)NC3=O)NC(=O)[C@H](CCCCN)NC(=O)[C@H](CC(=O)O)NC(=O)[C@H](CC(N)=O)NC(=O)[C@H](CC(=O)O)NC(=O)[C@@H]2CCCN2C1=O` [compound 588] yielded a Nav1.7/Nav1.3 (ratio of IWQ Use IC50 values) of 3.3.

Molecule `CC[C@H](C)[C@@H]1NC(=O)[C@@H]2CSSC[C@@H]3NC(=O)[C@H](C(C)C)NC(=O)[C@H](CC(C)C)NC(=O)[C@H](CC(N)=O)NC(=O)[C@@H]4CCCN4C(=O)[C@H](CCCNC(=N)N)NC(=O)[C@H](CSSC[C@H](NC(=O)[C@@H](N)CC(=O)O)C(=O)N[C@@H](CC(C)C)C(=O)NCC(=O)N[C@@H](Cc4ccccc4)C(=O)N[C@@H](Cc4ccccc4)C(=O)N[C@@H](CCCNC(=N)N)C(=O)N[C@@H](CCCCN)C(=O)N2)NC(=O)[C@H](CSSC[C@@H](C(=O)N[C@@H](CCCCN)C(=O)N[C@@H](Cc2cn(CCOCCOCCOCCOCCOCCOCCOCCOCCOCCOCCN)nn2)C(=O)N[C@H](C(=O)N[C@@H](Cc2cccc4ccccc24)C(N)=O)C(C)C)NC(=O)[C@H](Cc2c[nH]c4ccccc24)NC(=O)[C@H](CCCCN)NC(=O)[C@H](Cc2c[nH]cn2)NC(=O)[C@H]([C@@H](C)O)NC(=O)[C@H](CCCNC(=N)N)NC(=O)[C@H](CO)NC3=O)NC(=O)[C@H](CCCCN)NC(=O)[C@H](CC(=O)O)NC(=O)[C@H](CC(N)=O)NC(=O)[C@H](CC(=O)O)NC(=O)[C@@H]2CCCN2C1=O` [compound 559] has a Nav1.7/Nav1.3 (ratio of IWQ Use IC50 values) of 2.3.

For `CSCC[C@@H]1NC(=O)[C@H](Cc2ccccc2)NC(=O)CNC(=O)[C@H](CC(C)C)NC(=O)[C@@H](NC(=O)[C@@H](N)CC(=O)O)CSSC[C@@H]2NC(=O)[C@@H]3CSSC[C@@H](C(=O)N[C@@H](CCCCN)C(=O)N[C@@H](Cc4ccc(O)cc4)C(=O)N[C@H](C(=O)N[C@@H](Cc4ccccc4)C(N)=O)C(C)C)NC(=O)[C@H](Cc4c[nH]c5ccccc45)NC(=O)[C@H](CCCCN)NC(=O)[C@H](Cc4cnc[nH]4)NC(=O)[C@H]([C@@H](C)O)NC(=O)[C@H](CCCNC(=N)N)NC(=O)[C@H](CO)NC(=O)[C@H](CSSC[C@H](NC(=O)[C@H](CCCCN)NC(=O)[C@H](CCCNC(=N)N)NC1=O)C(=O)N[C@@H]([C@@H](C)O)C(=O)N1CCC[C@H]1C(=O)N[C@@H](CC(=O)O)C(=O)N[C@@H](CC(N)=O)C(=O)N[C@@H](CC(=O)O)C(=O)N[C@@H](CCCCN)C(=O)N3)NC(=O)[C@H](C(C)C)NC(=O)[C@H](CC(C)C)NC(=O)[C@H](CC(N)=O)NC(=O)[C@@H]1CCCN1C(=O)[C@H](CCCNC(=N)N)NC2=O` [compound 309] (H-DCLGFMRKCTPDNDKCCRPNLVCSRTHKWCKYVF-NH2; disulfide 2-17, 9-23, 16-30), the IC50 (Use) was 60 nM.

In the case of `CC[C@H](C)[C@@H]1NC(=O)[C@@H]2CSSC[C@@H]3NC(=O)[C@H](C(C)C)NC(=O)[C@H](CC(C)C)NC(=O)[C@H](CC(N)=O)NC(=O)[C@@H]4CCCN4C(=O)[C@H](CCCNC(=N)N)NC(=O)[C@H](CSSC[C@H](NC(=O)[C@@H](N)CC(=O)O)C(=O)N[C@@H](CC(C)C)C(=O)NCC(=O)N[C@@H](Cc4ccccc4)C(=O)N[C@@H](CCSC)C(=O)N[C@@H](CCCNC(=N)N)C(=O)N[C@@H](CCCCN)C(=O)N2)NC(=O)[C@H](CSSC[C@@H](C(=O)N[C@@H](CCCCN)C(=O)N[C@@H](Cc2ccc(O)cc2)C(=O)N[C@H](C(=O)N[C@@H](Cc2ccccc2)C(N)=O)C(C)C)NC(=O)[C@H](Cc2c[nH]c4ccccc24)NC(=O)[C@H](CC(=O)O)NC(=O)[C@H](Cc2cnc[nH]2)NC(=O)[C@H]([C@@H](C)O)NC(=O)[C@H](CCCNC(=N)N)NC(=O)[C@H](CO)NC3=O)NC(=O)[C@H](CCCCN)NC(=O)[C@H](CC(=O)O)NC(=O)[C@H](CC(N)=O)NC(=O)[C@H](CC(=O)O)NC(=O)[C@@H]2CCCN2C1=O` [SEQ ID NO: 750, [Asp28]GpTx-1] (H-DCLGFMRKCIPDNDKCCRPNLVCSRTHDWCKYVF-NH2; disulfide 2-17, 9-23, 16-30), the IC50 (use-dependent block, hNav1.3) is reported as 770 nM.

`CC[C@H](C)[C@@H]1NC(=O)[C@@H]2CSSC[C@@H]3NC(=O)[C@H](C(C)C)NC(=O)[C@H](CC(C)C)NC(=O)[C@H](CC(N)=O)NC(=O)[C@@H]4CCCN4C(=O)[C@H](CCCNC(=N)N)NC(=O)[C@H](CSSC[C@H](NC(=O)[C@@H](N)CC(=O)O)C(=O)N[C@@H](CC(C)C)C(=O)NCC(=O)N[C@@H](C)C(=O)N[C@@H](Cc4ccccc4)C(=O)N[C@@H](CCCNC(=N)N)C(=O)N[C@@H](CCCCN)C(=O)N2)NC(=O)[C@H](CSSC[C@@H](C(=O)N[C@@H](CCCCN)C(=O)N[C@@H](Cc2ccc(O)cc2)C(=O)N[C@H](C(=O)N[C@@H](Cc2ccccc2)C(N)=O)C(C)C)NC(=O)[C@H](Cc2c[nH]c4ccccc24)NC(=O)[C@H](CCCNC(=N)N)NC(=O)[C@H](Cc2cnc[nH]2)NC(=O)[C@H]([C@@H](C)O)NC(=O)[C@H](CCCNC(=N)N)NC(=O)[C@H](CO)NC3=O)NC(=O)[C@H](CCCCN)NC(=O)[C@H](CC(=O)O)NC(=O)[C@H](CC(N)=O)NC(=O)[C@H](CC(=O)O)NC(=O)[C@@H]2CCCN2C1=O` [compound 809] (H-DCLGAFRKCIPDNDKCCRPNLVCSRTHRWCKYVF-NH2; disulfide 2-17, 9-23, 16-30) showed an IC50 (use-dependent block, hNav1.3) of 300 nM.
